Converted amounts (≈) assume the structure as drawn. “And” between values parts separate entries of the source, which are not always exact repeats. Identical values can stand only once. Like-named read-outs stand apart in the source and are kept apart here. Marks after values point to notes of the source that are not given here.
Experiments:
[1] = In-vitro hydrolysis of Nabumetone beta-keto ester pro-prodrug and release of Nabumetone in model blood electrolyte solution at 37° C.; assay type: physicochemical; settings: for Nabumetone formed in the solution: under-estimated, precipitating Nabumetone compromised sampling
[2] = Aqueous solubility of sodium beta-keto salt prodrug of Nabumetone (Example 13b); assay type: physicochemical
Procedure: 12.1 mg of the of ethyl-5-(6-methoxy-2-naphthyl)-beta-keto-pentanoate product prepared and purified as in Example 8 was mixed with 25 mL of a 0.5 M aqueous solution NaOH and homogenised on a vortex mixer. […] 15 minutes after preparation of the sample, the sample was transferred to an oil bath set at 37° C. with continuous gentle magnetic stirring, and kept there for 3.5 hours. Crystalline flakes remained in the sample at the end of the 3.5 hours heat-treatment, and the sample was thereafter centrifuged and the clear liquid above the sedimented crystals was analysed by HPLC as described above.
After storage around one hour at room temperature a fraction of the sample was then filtered twice through a 0.2 μm filter (Whatman, 0.2 μm PS) fitted to a syringe to give a clear solution. 200 μL of this filtered solution was transferred, in a tightly closed vessel, to an oil bath at 95° C. and kept at this temperature for about 5 hours to bring about quantitative decarboxylation of the labile, dissolved beta-keto carboxylic salt prodrug derivative of Nabumetone.
The heated sample was then mixed with 35 mL of mobile phase (see Example 1) whereby a few solid crystals (comprising Nabumetone) was seen to not dissolve. In order to assure a correct sampling for HPLC analysis, 5 mL of the 35 mL sample was filtered through a 0.2 μm filter, after the whole 35 mL sample had been pH adjusted to 4.21 by 300 μL 0.1 M HCl+100 μL 1 M HCl, to assure that the pH of the sample was close to the pH of the mobile phase itself (pH 4.30). The filtered solution was thereafter analysed by HPLC and found to contain 0.777 mg Nabumetone per liter. If recalculated to the corresponding concentration of nabumetone equivalents in the form of the beta-keto salt prodrug present in dissolved form in the filtered 200 μl sample that was subsequently heat-treated to form Nabumetone above, the obtained concentration corresponds to a Nabumetone concentration of 136.7 mg Nabumetone per liter in the clear aqueous solution, at room temperature, before the heat-treatment at 95° C.

[3] = water at 25° C.; Sepassi et al, 2007; cited from earlier work
[4] = Sustained release of Nabumetone from beta-keto sodium salt prodrug in phosphate buffer at blood pH and 37° C.; assay type: physicochemical; settings: released from beta-keto salt prodrug, phosphate buffer pH about 7.4, 37° C.
Procedure: 20.91 mg of the product synthesised as described in Example 8 (however in this case not purified by the chromatographic step in Example 8) was mixed with 1 ml 0.5 M NaOH at room temperature, whereby a portion of the sample was dissolved. After 30 minutes the mixture was placed in an oven at 37° C., and 10 μl samples was taken at regular intervals, diluted with 1 ml mobile phase (as in Example 1), and analyzed by HPLC, using UV-detection at 240 nm. 3.0 hours after initiation of the saponification reaction, the precursor (retention time 4.6 min) could no longer be detected, and the precursor peak was replaced by a peak from the intermediary beta-keto salt prodrug (retention time 2.3 minutes). At this point in time, a solution of 9 ml H2O and 0.0762 g NaH2PO4 was added to the sample, in order to create a NaH2PO4/Na2HPO4 pH buffer by neutralization of the NaOH remaining in the sample. […] The sample was again placed in the oven at 37° C. and the decarboxylation of the beta-keto salt in solution, gradually giving the commercially available drug Nabumetone, was followed by HPLC by taking 100 μl samples at regular intervals and diluting them with 1 ml mobile phase (see Example 1 above) before injection on the HPLC. It can be seen from the data that Nabumetone was continuously released into the solution via the spontaneous, non-enzymatic decarboxylation of the dissolved prodrug sodium salt, over a period of more than 120 hours. The half-life of the prodrug was estimated to be about 70 hours in this medium and under the conditions used.

[5] = Storage stability of beta-keto calcium salt prodrug of Nabumetone (17 days at 60° C., HPLC); assay type: physicochemical
[6] = Storage stability of benzoylacetate salts and their corresponding acid (HPLC or gravimetric); assay type: physicochemical; settings: solid
Procedure: A 0.2 M solution of ethyl benzoyl acetate (90%, Sigma Aldrich) in 0.5 M NaOH (aq) was prepared at room temperature and stirred for typically 5-24 hours, still at room temperature. After this time a major part of the ethyl benzoyl acetate had been transformed into dissolved sodium benzoyl acetate, as evidenced by monitoring the reaction by analysis of samples by reversed phase HPLC. Some acetophenone and remaining ethyl benzoyl acetate were typically present in the samples, but in minor amounts. The method employed a C8 column with an inner diameter of 150×4.6 mm and 5 micron particles. The mobile phase consisted of 400 ml deionized water+600 ml acetonitrile+0.196 g H3PO4 (85%)+2.760 g NaH2PO4*H2O. The flow rate was set to 1.0 mL/min and UV detection at 254 nm was employed for analysis of the compounds ethylbenzoylacetate (precursor), benzoylacetate (model prodrug) and acetophenone (model drug).
The storage stability of the sodium and calcium salts of benzoylacetate, and of benzoylacetic acid, in solid form, and in aqueous solutions, was investigated by storage of samples under various conditions (see Table 3a above) with regular HPLC- or gravimetric measurements of the samples from time to time. Samples denoted “neutralized” were prepared from a solution prepared as described in Example 1, which was neutralized with diluted HCl after performing the steps in Example 1.
From the data it can be concluded that the best storage stability at room temperature is obtained by storage in the form of the calcium salt.

[7] = Aqueous solubility of benzoylacetate salts (Example 13a); settings: water
[8] = Re-activation of storage stabile beta-keto calcium salt by dissolution, release of ketone (odour); assay type: physicochemical
Procedure: 25 mg of the precipitated and dried calcium salt prepared in Example 2, was, after being subjected to the storage stability test of Example 4, dissolved in 5.66 g of tap water and boiled for two minutes.

rat = settings: cited from earlier work

Q: Which results are given for `COc1ccc2cc(CCC(C)=O)ccc2c1` [Nabumetone, 4-(6-methoxy-2-naphthyl)-2-butanone]?
A: storage time after which sedimenting crystalline flakes of Nabumetone were detected in the sample ([1]; model blood solutes solution): 100 to 150 h; Nabumetone staying in a stabile dispersion (theoretical concentration) ([1]; model blood solutes solution with surface active beta-keto anion prodrug): 40 mg/L; Nabumetone formed in the solution ([1]; model blood solutes solution, Time 96.8 hours): (2656)* mg/L; Nabumetone formed in the solution ([1]; model blood solutes solution, Time 121.25 hours): (2715)* mg/L; Nabumetone formed in the solution ([1]; model blood solutes solution, Time 145.0 hours): (2423)* mg/L; Nabumetone formed in the solution ([1]; model blood solutes solution, Time 172.6 hours): (3508)* mg/L; Nabumetone formed in the solution ([1]; model blood solutes solution, Time 197.3 hours): (3240)* mg/L; Nabumetone formed in the solution ([1]; model blood solutes solution, Time 218.4 hours): (3859)* mg/L; Nabumetone formed in the solution ([1]; model blood solutes solution, Time 293.7 hours): (3013)* mg/L; Nabumetone found in filtered solution by HPLC ([2]; 200 μL filtered prodrug solution decarboxylated at 95° C. for about 5 hours, mixed with 35 mL mobile phase): 0.777 mg Nabumetone per liter; Area at retention time 3.8 minutes characteristic for detection of Nabumetone ([2]; clear liquid after 3.5 h at 37° C. in 0.5 M NaOH, 200 μL diluted with 5.0 ml mobile phase): 59 arbitrary units; Solubility [3]: 0.0047 mg/mL (≈ 20.6 µM); Nabumetone (HPLC area @ 3.8 min) ([4]; 3.25 h after initiation of saponification): 0; Nabumetone (HPLC area @ 3.8 min) ([4]; 5.1 h after initiation of saponification): 0; Nabumetone (HPLC area @ 3.8 min) ([4]; 21.45 h after initiation of saponification): 5265; Nabumetone (HPLC area @ 3.8 min) ([4]; 24.25 h after initiation of saponification): 5388 and 5496; Nabumetone (HPLC area @ 3.8 min) ([4]; 28.15 h after initiation of saponification): 5804; Nabumetone (HPLC area @ 3.8 min) ([4]; 45.4 h after initiation of saponification): 10083; Nabumetone (HPLC area @ 3.8 min) ([4]; 50 h after initiation of saponification): 11400; Nabumetone (HPLC area @ 3.8 min) ([4]; 78 h after initiation of saponification): 13359; Nabumetone (HPLC area @ 3.8 min) ([4]; 117 h after initiation of saponification): 18156; Nabumetone (HPLC area @ 3.8 min) ([4]; 194 h after initiation of saponification): 22484; Relative amount of calcium salt beta-keto prodrug/Nabumetone remaining after 17 days at 60° C. ([5]; 408 h): 45.3%; Obtained value (area units) ([5]; dry calcium salt after 17 days at 60° C., redissolved in water, HPLC): 1315 area units; Expected value if no breakdown occured during storage and a 100% yield was obtained upon precipitation with calcium chloride ([5]; recalculated for dilution): 90 area units

Q: Which “Absolute amount of calcium benzoylacetate in sample (wt %, from HPLC)” value ([6]; 1 days at room T and typical indoor humidity, 0 days at 50% RH and room T, 0 days at 60° C. in oven) does the source give for `O=C([O-])CC(=O)c1ccccc1.O=C([O-])CC(=O)c1ccccc1.[Ca+2]` [calcium benzoylacetate, Ca(benzoylacetate)2] here?
A: 35.9 wt %

Q: And the “Absolute amount of calcium benzoylacetate in sample (wt %, from HPLC)” value ([6]; 1.9 days at room T and typical indoor humidity, 0 days at 50% RH and room T, 0 days at 60° C. in oven)?
A: 34.2 wt %

Q: What about the “Absolute amount of calcium benzoylacetate in sample (wt %, from HPLC)” value ([6]; 8 days at room T and typical indoor humidity, 0 days at 50% RH and room T, 0 days at 60° C. in oven) of the same compound?
A: 43.0 wt %

Q: What about the “Absolute amount of calcium benzoylacetate in sample (wt %, from HPLC)” value ([6]; 9 days at room T and typical indoor humidity, 0 days at 50% RH and room T, 103 days at 60° C. in oven) of the same compound?
A: 45.6 wt %

Q: What about the “Absolute amount of calcium benzoylacetate in sample (wt %, from HPLC)” value ([6]; 9 days at room T and typical indoor humidity, 103 days at 50% RH and room T, 0 days at 60° C. in oven) of the same compound?
A: 32.1 wt %

Q: What about the “Absolute amount of calcium benzoylacetate in sample (wt %, from HPLC)” value ([6]; 28 days at room T and typical indoor humidity, 0 days at 50% RH and room T, 0 days at 60° C. in oven) of the same compound?
A: 33.1 wt %

Q: What about the “Absolute amount of calcium benzoylacetate in sample (wt %, from HPLC)” value ([6]; 112 days at room T and typical indoor humidity, 0 days at 50% RH and room T, 0 days at 60° C. in oven) of the same compound?
A: 40.4 wt %

Q: And the Solubility ([7]; as Ca(benzoylacetate)2, corrected for 40 wt % content)?
A: 69 mM

Q: What about the “Solubility (mM, as acetophenone equivalents)” value ([7]; benzoylacetate in the solution, corrected for 40 wt % content) of the same compound?
A: 138 mM

Q: What about the solubility limit ([7]; dry calcium salt sample containing only 40 wt % calcium benzoyl acetate) of the same compound?
A: ~63 mg/mL

Q: And the “release of acetophenone (odour)” value ([8]; 25 mg dissolved in 5.66 g tap water and boiled for two minutes, after storage stability test)?
A: strong odour of acetophenone

Q: And the “release of acetophenone (odour)” value ([8]; similar amount kept in dry form in an identical beaker)?
A: did not give rise to any acetophenone odour

Q: Which LD50 (rat) does the source give for `CCN` [ethyl amine] here?
A: 280 mg/kg

Q: Which LD50 (rat) does the source give for `CN` [methyl amine] here?
A: 100 mg/kg
